Values after ≈ are worked out from the molar mass of the structure shown. Read-outs that look alike come from different tables or passages of the source.
What was measured:
[1] = system: Staphylococcus aureus ATCC 6538 P; assay: Bacteriostatic power in solid medium (MIC), aerobic Gram positive; assay type: cell-based; settings: Staphylococcus aureus
[2] = system: Staphylococcus aureus LRP 14; assay: as above; assay type: cell-based; settings: Staphylococcus aureus
[3] = system: Streptococcus faecalis LRP 7; assay: as above; assay type: cell-based; settings: Enterococcus faecalis
[4] = system: Streptococcus faecalis sub. zymogenes ATCC 12958; assay: as above; assay type: cell-based; settings: Enterococcus faecalis
[5] = system: Streptococcus pneumonieae ATCC 6303; assay: as above; assay type: cell-based; settings: Streptococcus
[6] = system: Streptococcus pneumonieae LRP 52; assay: as above; assay type: cell-based; settings: Streptococcus
[7] = system: Streptococcus pneumonieae LRP 53; assay: as above; assay type: cell-based; settings: Streptococcus
[8] = system: Streptococcus pyogenes ATCC 8668; assay: as above; assay type: cell-based; settings: Streptococcus pyogenes
[9] = system: Streptococcus pyogenes LRP 197; assay: as above; assay type: cell-based; settings: Streptococcus pyogenes
[10] = system: Corynebacterium diphteriae LRP 24; assay: as above; assay type: cell-based; settings: Corynebacterium
[11] = system: Micrococcus luteus ATCC 9341; assay: as above; assay type: cell-based; settings: Micrococcus luteus
[12] = system: Micrococcus luteus ATCC 15957; assay: as above; assay type: cell-based; settings: Micrococcus luteus, ATCC15957, LRP 193, Erythromicina resistant, read-out: minimum inhibiting concentration
Text: (§1) Turning now to an examination of the novel macrolide antibiotics produced according to the present invention, they are all characterized by a bacteriostatic spectrum like that of erythromycin and by the stability in acidic environment, whereby their direct administration by oral route is possible, without having recourse to esters and/or salts, showing the afore mentioned disadvantages and problems. The above is confirmed by the following Table 1, wherein the MIC values are reported, indicating the bacteriostatic power, and by the Table 2, giving the stability values in acidic environment. Without having to be construed in a limiting sense, it seems plausible that the greater stability of the macrolide. antibiotics of the present invention can be attributed to the presence in the molecule of the antibiotic of the neutral sugar oleandrose (J. Antib. (1976) XXIX (7), 728).
(§2) Bacteriostatic power in solid medium of Erythromycin A, Erythromycin B,
(§3) aerobic and anaerobic bacteria, Gram positive and Gram negative minimum
(§4) inhibiting concentrations expressed in mcg/ml.

[13] = system: Staphylococcus aureus ATCC 14154; assay: as above; assay type: cell-based; settings: Staphylococcus aureus, ATCC14154, LRP 78, Erythromicina resistant, read-out: minimum inhibiting concentration
Text: as §1, §2, §3, §4

Bacillus subtilis LRP 25 = assay: as above; assay type: cell-based; settings: Bacillus subtilis
[14] = system: Haemophilus influenzae ATCC 19418; assay: Bacteriostatic power in solid medium (MIC), aerobic Gram negative; assay type: cell-based; settings: Haemophilus influenzae, ATCC19418, LRP 213, read-out: minimum inhibiting concentration
Text: as §1, §2, §3, §4

[15] = system: Pseudomonas aeruginosa LRP 9; assay: as above; assay type: cell-based; settings: Pseudomonas aeruginosa, LRP9, read-out: minimum inhibiting concentration
Text: as §1, §2, §3, §4

Shigella sonnei LRP 5 = assay: as above; assay type: cell-based; settings: Shigella sonnei, LRP5, read-out: minimum inhibiting concentration
Text: as §1, §2, §3, §4

[16] = system: Neisseria Gonorrhoeae ATCC 19424; assay: as above; assay type: cell-based; settings: Neisseria gonorrhoeae
Escherichia coli LRP 50 = assay: as above; assay type: cell-based; settings: Escherichia coli, LRP50, read-out: minimum inhibiting concentration
[17] = system: Klebsiella pneumoniae LRP 54; assay: as above; assay type: cell-based; settings: Klebsiella pneumoniae, LRP54, read-out: minimum inhibiting concentration
[18] = system: Proteus vulgaris ATCC 6380; assay: as above; assay type: cell-based; settings: Proteus vulgaris, ATCC6380, read-out: minimum inhibiting concentration
Salmonella typhi LRP 8 = assay: as above; assay type: cell-based; settings: Salmonella enterica, TYPHI, read-out: minimum inhibiting concentration
[19] = system: Acholeplasma laidlawii ATCC 23206; assay: as above; assay type: cell-based; settings: Acholeplasma laidlawii
[20] = system: Mycoplasma hominis I ATCC 14097; assay: as above; assay type: cell-based; settings: Metamycoplasma hominis, ATCC14097, read-out: minimum inhibiting concentration
[21] = system: Clostridium perfrigens ATCC 3624; assay: Bacteriostatic power in solid medium (MIC), anaerobic; assay type: cell-based; settings: Clostridium, ATCC3624, LRP 206, read-out: minimum inhibiting concentration
[22] = system: Bacteroides fragilis ATCC 23745; assay: as above; assay type: cell-based; settings: Bacteroides fragilis
[23] = system: Fusobacterium necrophorum ATCC 27852; assay: as above; assay type: cell-based; settings: Fusobacterium necrophorum
physchem = assay type: physicochemical; settings: acidic environment
Text: t 1/2 represents the half life time of the antibiotics as determined by
high pressure liquid phase chromatography (HPLC).

[24] = Relative solubility in water phase (extraction, TLC and HPLC control); assay type: physicochemical; settings: relative to P 15148, P 15149 and P 15153; alkaline aqueous phase
Text: Before each extraction the pH of the aqueous phase is brought again to 9.

[25] = known; cited from earlier work
[26] = ATCC6538, read-out: minimum inhibiting concentration
[27] = LRP14, read-out: minimum inhibiting concentration
[28] = LRP7, read-out: minimum inhibiting concentration
[29] = ATCC12958, read-out: minimum inhibiting concentration
[30] = ATCC6303, read-out: minimum inhibiting concentration
[31] = LRP52, read-out: minimum inhibiting concentration
[32] = LRP53, read-out: minimum inhibiting concentration
[33] = ATCC8668, read-out: minimum inhibiting concentration
[34] = LRP197, read-out: minimum inhibiting concentration
[35] = LRP24, read-out: minimum inhibiting concentration
[36] = ATCC9341, read-out: minimum inhibiting concentration
[37] = LRP25, read-out: minimum inhibiting concentration
[38] = ATCC19424, read-out: minimum inhibiting concentration
[39] = ATCC23206, read-out: minimum inhibiting concentration
[40] = ATCC23745, read-out: minimum inhibiting concentration
[41] = ATCC27852, read-out: minimum inhibiting concentration

| Structure (SMILES) | MIC [1, 26] | MIC [2, 27] | MIC [3, 28] | MIC [4, 29] | MIC [5, 30] | MIC [6, 31] | MIC [7, 32] | MIC [8, 33] | MIC [9, 34] | MIC [12] | MIC [13] | MIC [14] | MIC [15] | MIC (Shigella sonnei LRP 5) | MIC (Escherichia coli LRP 50) | MIC [17] | MIC [18] | MIC (Salmonella typhi LRP 8) | MIC [20] | MIC [21] | further results |
| --- | --- | --- | --- | --- | --- | --- | --- | --- | --- | --- | --- | --- | --- | --- | --- | --- | --- | --- | --- | --- | --- |
| CO[C@H]1C[C@H](O[C@H]2[C@H](C)[C@@H](O[C@@H]3O[C@H](C)C[C@H](N(C)C)[C@H]3O)[C@](C)(O)C[C@@H](C)C(=O)[C@H](C)[C@@H](O)[C@@H](C)[C@@H](CCO)OC(=O)[C@@H]2C)O[C@@H](C)[C@@H]1O [P 15150, 3-O-oleandrosyl-5-O-desosaminyl-15-hydroxyerythronolide B] | 3.12 µg/mL (≈ 4.33 µM) | 3.12 µg/mL (≈ 4.33 µM) | 6.25 µg/mL (≈ 8.68 µM) | 3.12 µg/mL (≈ 4.33 µM) | 0.195 µg/mL (≈ 0.271 µM) | 0.195 µg/mL (≈ 0.271 µM) | 0.39 µg/mL (≈ 0.542 µM) | 0.097 µg/mL (≈ 0.135 µM) | 0.097 µg/mL (≈ 0.135 µM) | > 25 µg/mL | > 25 µg/mL | > 25 µg/mL | > 25 µg/mL | > 25 µg/mL | > 25 µg/mL | > 25 µg/mL | > 25 µg/mL | 25 µg/mL (≈ 34.7 µM) | > 25 µg/mL | 6.25 µg/mL (≈ 8.68 µM) | MIC [10, 35]: 0.097 µg/mL (≈ 0.135 µM); MIC [11, 36]: 0.195 µg/mL (≈ 0.271 µM); MIC (Bacillus subtilis LRP 25; [37]): 3.12 µg/mL (≈ 4.33 µM); MIC [16, 38]: 0.195 µg/mL (≈ 0.271 µM); MIC [19, 39]: 6.25 µg/mL (≈ 8.68 µM); MIC [22, 40]: > 25 µg/mL; MIC [23, 41]: > 25 µg/mL; half-life (physchem; pH 2, read-out: t 1/2): > 100 h; half-life (physchem; pH 3, read-out: t 1/2): > 100 h; half-life (physchem; pH 4, read-out: t 1/2): > 100 h; solubility in water phase [24]: more soluble than the others in water phase |
| CC[C@H]1OC(=O)[C@H](C)[C@@H](O[C@H]2C[C@H](OC)[C@@H](O)[C@H](C)O2)[C@H](C)[C@@H](O[C@@H]2O[C@H](C)C[C@H](N(C)C)[C@H]2O)[C@](C)(O)C[C@@H](C)C(=O)[C@H](C)[C@@H](O)[C@H]1C [P 15149, 3-O-oleandrosyl-5-O-desosaminyl-erythronolide B] | 0.78 µg/mL (≈ 1.11 µM) | 0.78 µg/mL (≈ 1.11 µM) | 0.78 µg/mL (≈ 1.11 µM) | 0.78 µg/mL (≈ 1.11 µM) | 0.097 µg/mL (≈ 0.138 µM) | 0.097 µg/mL (≈ 0.138 µM) | 0.097 µg/mL (≈ 0.138 µM) | 0.097 µg/mL (≈ 0.138 µM) | 0.097 µg/mL (≈ 0.138 µM) | > 25 µg/mL | > 25 µg/mL | 6.25 µg/mL (≈ 8.88 µM) | > 25 µg/mL | > 25 µg/mL | > 25 µg/mL | > 25 µg/mL | > 25 µg/mL | > 25 µg/mL | > 25 µg/mL | 12.5 µg/mL (≈ 17.8 µM) | MIC [10, 35]: 0.049 µg/mL (≈ 0.0696 µM); MIC [11, 36]: 0.097 µg/mL (≈ 0.138 µM); MIC (Bacillus subtilis LRP 25; [37]): 0.039 µg/mL (≈ 0.0554 µM); MIC [16, 38]: 0.195 µg/mL (≈ 0.277 µM); MIC [19, 39]: 12.5 µg/mL (≈ 17.8 µM); MIC [22, 40]: 3.12 µg/mL (≈ 4.43 µM); MIC [23, 41]: > 25 µg/mL; half-life (physchem; pH 2): 18 h; half-life (physchem; pH 3, read-out: t 1/2): > 100 h; half-life (physchem; pH 4, read-out: t 1/2): > 100 h |
| CO[C@H]1C[C@H](O[C@H]2[C@H](C)[C@@H](O[C@@H]3O[C@H](C)C[C@H](N(C)C)[C@H]3O)[C@@H](C)C[C@@]3(CO3)C(=O)[C@H](C)[C@@H](O)[C@@H](C)[C@@H](C)OC(=O)[C@@H]2C)O[C@@H](C)[C@@H]1O [oleandomycin, reference compound] | – | – | – | – | – | – | – | – | – | > 25 µg/mL | > 25 µg/mL | > 25 µg/mL | > 25 µg/mL | > 25 µg/mL | > 25 µg/mL | > 25 µg/mL | > 25 µg/mL | > 25 µg/mL | > 25 µg/mL | 3.12 µg/mL (≈ 4.54 µM) | MIC ([1]; ATCC6538, solid medium, LRP 39, read-out: minimum inhibiting concentration): 0.39 µg/mL (≈ 0.567 µM); MIC ([2]; LRP14, solid medium, LRP 14, Penycilline resistant, read-out: minimum inhibiting concentration): 0.39 µg/mL (≈ 0.567 µM); MIC ([3]; LRP7, solid medium, LRP 7, read-out: minimum inhibiting concentration): 1.56 µg/mL (≈ 2.27 µM); MIC ([4]; ATCC12958, solid medium, LRP 61, read-out: minimum inhibiting concentration): 1.56 µg/mL (≈ 2.27 µM); MIC ([5]; ATCC6303, solid medium, LRP 35, read-out: minimum inhibiting concentration): 0.195 µg/mL (≈ 0.283 µM); MIC ([6]; LRP52, solid medium, LRP 52, read-out: minimum inhibiting concentration): 0.195 µg/mL (≈ 0.283 µM); MIC ([7]; LRP53, solid medium, LRP 53, read-out: minimum inhibiting concentration): 0.195 µg/mL (≈ 0.283 µM); MIC ([8]; ATCC8668, solid medium, LRP 34, read-out: minimum inhibiting concentration): 0.195 µg/mL (≈ 0.283 µM); MIC ([9]; LRP197, solid medium, LRP 197, read-out: minimum inhibiting concentration): 0.195 µg/mL (≈ 0.283 µM); MIC ([10]; LRP24, solid medium, LRP 24, read-out: minimum inhibiting concentration): 0.097 µg/mL (≈ 0.141 µM); MIC ([11]; ATCC9341, solid medium, LRP 6, read-out: minimum inhibiting concentration): 0.049 µg/mL (≈ 0.0712 µM); MIC (Bacillus subtilis LRP 25; LRP25, solid medium, LRP 25, read-out: minimum inhibiting concentration): 0.39 µg/mL (≈ 0.567 µM); MIC ([16]; ATCC19424, solid medium, LRP 214, read-out: minimum inhibiting concentration): 0.195 µg/mL (≈ 0.283 µM); MIC ([19]; ATCC23206, solid medium, LRP 204, read-out: minimum inhibiting concentration): 6.25 µg/mL (≈ 9.09 µM); MIC ([22]; ATCC23745, solid medium, LRP 205, anaerobic, read-out: minimum inhibiting concentration): 0.39 µg/mL (≈ 0.567 µM); MIC ([23]; ATCC27852, solid medium, LRP 210, anaerobic, read-out: minimum inhibiting concentration): 6.25 µg/mL (≈ 9.09 µM); toxicity [25]: high toxicity |

— patent US4560662A, “Streptomyces antibioticus ATCC 31771 and process for obtaining same” (priority 1981, dated 1985)
